Source: US12606795B2 (Thankcome Biological Science and Technology (SuZhou) Co., …, priority 2023, dated 2026)
Marks after values point to notes of the source that are not given here.

Assays:
[1] = system: DSS-induced ulcerative colitis mice; experiment: DSS-induced ulcerative colitis in mice; format: in vivo, C57BL/6J mice; conditions: 5.0% DSS mice, 1×10^10 CFU/mL intragastric daily 9 d
Description: Animals and their management: male C57BL/6J mice (6 to 10-week-old, weighing 18 to 24 g) purchased from the Beijing Huafukang Biotechnology Co., Ltd, where procedures involving mice were carried out in strict accordance with international animal care standards, and approved by the Animal Protection Institute and Management Committee of Jilin Agricultural University. Adaptive culture was performed for 1 week, and mice were cultured at room temperature (25° C.±1° C.) in a cycle of 12 h of light and 12 h of darkness.
Animal experimental design: 5.0% (wt/vol) DSS (molecular weight: 36,000 to 50,000) was added to drinking water of the mice for 3 consecutive days to induce colitis. Beginning on the first day of taking DSS, the A. muciniphila (viable or inactivated, with a concentration of 1×10^10 CFU/mL) was intragastrically administered per day for 9 consecutive days. C57BL/6J mice were randomly divided into four groups: a control group, a DSS model group (DSS), an AKK PRO group, and an inactivated AKK PRO group (mAKK PRO). Physiological indicators of the mice in each group were observed.
Physiological indicators: The physiological indicators are used for assessing health statuses of the mice. The individual scores of the mice were combined to generate disease activity indices (DAI), including changes of body weight, food intake, and fecal consistency. After the mice were euthanized, the colon length and the liver weight of each mouse in each group were measured, and an immune organ index was calculated according to the following formula: liver index=liver weight (mg)/body weight (g) [Wang, X., et al., Troxerutin Improves Dextran Sulfate Sodium-Induced Ulcerative Colitis in Mice. J Agric Food Chem, 2021. 69 (9): p. 2729-2744.].

[2] = Tolerance to artificial gastric juice; format: physicochemical; conditions: artificial gastric juice pH 2.0, 37° C., at 240 min
Description: Gastric juice ([…], 2 g/L NaCl, and 3.2 g/L pepsin, pH 2.0) and intestinal juice (6.8 g/L KH2 PO4, 10 g/L trypsin, and 0.1M NaOH, pH 8.0) were prepared, and then the gastric juice and the intestinal juice were filtered and sterilized using 0.22 μm sterile filter. […] The bacterial cells were washed twice with sterile saline and resuspended in 5 mL saline. A bacterial solution was mixed well with the sterile artificial gastric or intestinal juice in 1:1 (v/v). The mixture was shaken well, and then was placed in a constant-temperature incubator and culture was performed at 37° C.

[3] = system: APP/PS1 double transgenic mice; experiment: Alzheimer's disease in APP/PS1 double transgenic mice; format: in vivo
Source text: 20 12-month-old APP/PS1 double transgenic mice (Hangzhou Ziyuan Experimental Animal Technology Co., Ltd., batch MJ0324-058) were randomly divided into two groups: an APP group and an APP+AKK group, with 10 mice in each group. Another 10 littermate wild-type C57 BL/6J mice were taken as blank, which served as a WT group. All mice were given intragastric administration and injection for 30 d at 12-month age (see Table 7 for intragastric administration conditions). After all the experiments ended, blood was collected from the orbital veins of the mice. The mice were sacrificed by cervical dislocation. Part of brain tissue, liver tissue and colon tissue of the mice were taken and placed in 4% paraformaldehyde, and the remaining tissue was placed in an ultra-low temperature freezer at −80° C. for storage.
DDW: Double distilled water.
After administration, a Morris water maze experiment of a 4-day duration was conducted firstly. The water maze consists of a circular pool (with a diameter of 120 cm) and is evenly divided into four quadrants. During the experiment, the mice were moved into a laboratory two hours in advance to acquaint themselves with the environment. The water temperature was adjusted to around 21° C. to 22° C., and then milk was poured into the pool to make the water milky white. D1 to D3 were a training period, during which the mice were gently placed into the water from first, second, third, and fourth quadrants with their faces towards the direction of the pool wall reminders. Swimming trajectories at 1 min were recorded. […] Each mouse was trained once per day per quadrant for 3 consecutive days. D4 was an experimental period, during which a quadrant was randomly selected for each mouse and then the mice were placed in the pool. The time required to find the platform within 60 s, i.e., escape latency, was recorded, and the swimming trajectory of each mouse was recorded with a video acquisition system. If the mouse fail to find the platform within 60 s after entering the water, the escape latency is recorded as 60 s.
A hippocampus was homogenized in 1 mL RIPA (Thermofisher, Waltham, MA, USA) and 10 μL PMSF (Thermofisher), and the homogenized hippocampus was centrifuged at 4° C. at 12000×g for 5 min. Proteins were quantified using a BCA protein assay kit (Thermofisher). A protein sample was mixed with a sample buffer (Thermofisher) in a ratio of 4:1, and the mixture was heated at 95° C. for 5 min. Then the sample was dispensed into gel pores of SDS-PAGE gel and the gel was run at 100 V. Strips on SDS-PAGE gel were transferred onto a PVFD membrane. The PVDF membrane was sealed with 5% skim milk for 1 h, and then the stripes were incubated overnight with a primary antibody (Thermofisher) at 4° C. An antibody (Thermofisher) was added after the membrane was washed and the incubation was performed for 1 h. Images on iBright™ (Thermofisher) were obtained after chemiluminescence was performed using a western ECL substrate (Thermofisher), where the images were used for subsequent analysis.
The hippocampus was taken and homogenized with PBS, and then liquid supernatant was drawn for the experiment. The levels of IL-4 (interleukin-4, Nanjing Jiancheng Biological Engineering Research Institute, product number: H005-1-2), IL-10 (interleukin-10, Nanjing Jiancheng Biological Engineering Research Institute, product number: H009-1-2), CCL2 (chemokine ligand 2, Nanjing Jiancheng Biological Engineering Research Institute, product number: H318-1) and CXCL1 (CXC chemokine ligand 1, Nanjing Jiancheng Biological Engineering Research Institute, product number: H306-1) in the hippocampus were tested by the instruction of the ELISA kit.

[4] = 1*10^9 CFU/mouse/d intragastric 30 d, vs APP group
[5] = APP+AKK group compared with APP group

Akkermansia muciniphila [AKK PROBIO]
immune organ index (liver index) ([1]; vs DSS group): significantly decreased | colon length ([1]; vs DSS group, P<0.05): significantly increased | DAI score ([1]; vs model group): lower | body weight reduced ([1]; vs model group): less | food intake reduced ([1]; vs model group): less | survival rate in gastric juice [2]: around 85% | escape latency (Morris water maze) [3, 4]: shortened | path to finding the platform (Morris water maze) [3, 4]: significantly shortened | levels of CXCL1 and CCL2 [3, 5]: declining trend | levels of IL-4 and IL-10 [3, 5]: rising trend | Hippocampus IL-4 ([3]; APP/PS1 mice, 1*10^9 CFU/mouse/d 30 d, APP group 54.73, WT 410.91): 210.90 ± 19.77^c | Hippocampus CCL2 ([3]; APP/PS1 mice, 1*10^9 CFU/mouse/d 30 d, APP group 159.11, WT 103.32): 123.20 ± 0.50^b | Hippocampus Aβ ([3]; APP/PS1 mice, 1*10^9 CFU/mouse/d 30 d, APP group 348.45, WT 59.23): 185.15 ± 9.07^b | Hippocampus IL-10 ([3]; APP/PS1 mice, 1*10^9 CFU/mouse/d 30 d, APP group 1035.86, WT 3373.80): 2516.88 ± 91.80^c | Hippocampus CXCL1 ([3]; APP/PS1 mice, 1*10^9 CFU/mouse/d 30 d, APP group 1217.20, WT 355.37): 653.77 ± 15.44^b
